Assay results as given in publication PMC8659243, “Design, Synthesis and Tumour-Selective Toxicity of Novel 1-[3-{3,5-Bis(benzylidene)-4-oxo-1-piperidino}-3-oxopropyl]-4-piperidone Oximes and Related Quaternary Ammonium Salts” (Molecules, 2021).
Counter-ions that a name gives are not always drawn.

Columns and labels:
SR cells = test: NCI in vitro screen, leukemia SR; format: cell-based; settings: Homo sapiens
Description: (§1) In view of the encouraging result with CEM leukemic cells, consideration was given to an assessment in the NCI in vitro screening program. The oximes, but not the quaternary ammonium salts, were accepted for bioevaluation. Examination of the mean graphs confirms the sensitivity of leukemic cells to these compounds.

SW-620 cells = test: NCI in vitro screen, colon cancer SW-620; format: cell-based; settings: Homo sapiens
Description: (§2) One particular reference drug is 5-fluorouracil, which is used in treating colon cancers.

leukemia cells = test: NCI in vitro screen, average of leukemia cells; format: cell-based; settings: Homo sapiens
Description: as §1

Colo205 cells = test: NCI in vitro screen, colon cancer Colo205; format: cell-based; settings: Homo sapiens, COLO 205
Description: as §2

HCT-116 cells = test: NCI in vitro screen, colon cancer HCT-116; format: cell-based; settings: Homo sapiens
Description: as §2

[1] = Average over HGF, HPLF and HPC non-malignant cells; format: cell-based; settings: human, HPLF and HPC non-malignant cells (average of the three)
Protocol: (§3) A literature procedure was followed when the compounds in series 3 and 4 were evaluated against three human oral squamous cell carcinoma cell lines Ca9-22 (RCB-1976), HSC-2 (RCB1945), HSC-4 (RCB1902) (purchased from RIKEN Cell Bank, Tukuba, Japan) and three human normal oral cells, gingival fibroblast (HGF), periodontal ligament fibroblast (HPLF) and pulp cells (HPC) (established according to the guideline of the intramural ethic committee, A0808) except the duration of incubation was increased from 24 h to 48 h. In brief, various concentrations of the compounds were added to the DMEM media, which was supplemented by 10% heat-inactivated fetal bovine serum. Incubation was undertaken at 37 °C. At the completion of the experiment, cell viability was determined by the MTT method.

KM12 cells = test: NCI in vitro screen, colon cancer KM12; format: cell-based; settings: Homo sapiens
Description: as §2

Molt-4 cells = test: NCI in vitro screen, leukemia Molt-4; format: cell-based; settings: Homo sapiens
Description: as §1

[2] = system: CEM T-lymphoblastic leukemia cells; test: Cytotoxicity against CEM cells, MTT method, 24 h; format: cell-based; settings: Homo sapiens, CCRF-CEM, concentration required to inhibit cell growth by 50%
Protocol: The method used for the evaluation of various compounds against human CEM cells has been reported previously. In brief, cells were grown in RPMI-1640 medium supplemented with 10% heat-inactivated fetal bovine serum. Different concentrations of compounds were added to the media, and after 24 h incubation, cytotoxicity was measured by the MTT method.

[3] = Cytotoxicity against non-malignant HPC cells, MTT method, 48 h; format: cell-based; settings: human, pulp cells (HPC)
Protocol: as §3

HCT-15 cells = test: NCI in vitro screen, colon cancer HCT-15; format: cell-based; settings: Homo sapiens
Description: as §2

HL-60 (TB) cells = test: NCI in vitro screen, leukemia HL-60 (TB); format: cell-based; settings: Homo sapiens
Description: as §1

All Cell Lines = test: NCI in vitro screen, all cell lines; format: cell-based; settings: Homo sapiens
Description: as §2

K-562 cells = test: NCI in vitro screen, leukemia K-562; format: cell-based; settings: Homo sapiens, K562
Description: as §1

HSC-2 cells = test: Cytotoxicity against HSC-2 cells, MTT method, 48 h; format: cell-based, human; settings: for CC50: Homo sapiens, HSC-2, concentration required to kill 50% of the cells, 48 h, MTT; for SI HSC-2: average CC50 towards HGF, HPLF, HPC divided by CC50 against HSC-2
Protocol: as §3

RPMI-8226 cells = test: NCI in vitro screen, leukemia RPMI-8226; format: cell-based; settings: Homo sapiens
Description: as §1

[4] = Stability by 1H NMR in 9:1 deuterated dimethylsulfoxide and deuterium oxide; format: physicochemical; settings: 37 °C
HCC-2998 cells = test: NCI in vitro screen, colon cancer HCC-2998; format: cell-based; settings: Homo sapiens
Description: as §2

[5] = system: Ca9-22, HSC-2 and HSC-4 cells; test: Average over Ca9-22, HSC-2 and HSC-4 neoplastic cells; format: cell-based, human; settings: for CC50: Homo sapiens, average of Ca9-22, HSC-2 and HSC-4, read-out: Average CC50; for Average SI: average of SI for Ca9-22, HSC-2 and HSC-4
Protocol: In order to assess whether the compounds in series 3 and 4 are more toxic to neoplasms than non-malignant cells, selective index (SI) figures were calculated. In the in vivo situation, a tumour is surrounded by a number of non-malignant cells.
In order to identify the most promising lead compounds in terms of both cytotoxic potencies and favourable SI values, potency–selectivity expression (PSE) values were computed. […] Outstanding results may be noted for four compounds that have PSE values in excess of 100,000 namely 3d, 4c–e. […] However, the relative SI/PSE distribution patterns between series 3 and 4 (from a to h) are nearly superimposable with each other (Figure 3). […] It has been reported that 3,5-bis(3-iodo-5-methoxy-4-propoxybenzylidene)-N-acetylpiperidin-4-one inhibited tubulin and destabilization of microtubules, while 3,5-bis(3,4,5-trimethoxybenzylidene)-N-benzoylpiperidin-4-one destabilizes the microtubules. Thus, it remained to investigate whether compound 4d acts as an inhibitor of the microtubule.
as §3

colon cancer cells = test: NCI in vitro screen, average of colon cancer cells; format: cell-based; settings: Homo sapiens
Description: as §2

Ca9-22 cells = test: Cytotoxicity against Ca9-22 cells, MTT method, 48 h; format: cell-based, human; settings: for CC50: Homo sapiens, Ca9-22, concentration required to kill 50% of the cells, 48 h, MTT, read-out: CC50 Ca9-22; for SI Ca9-22: average CC50 towards HGF, HPLF, HPC divided by CC50 against Ca9-22
Protocol: as §3

HSC-4 cells = test: Cytotoxicity against HSC-4 cells, MTT method, 48 h; format: cell-based, human; settings: for CC50: Homo sapiens, HSC-4, concentration required to kill 50% of the cells, 48 h, MTT, read-out: CC50 HSC-4; for SI HSC-4: average CC50 towards HGF, HPLF, HPC divided by CC50 against HSC-4
Protocol: as §3

HT29 cells = test: NCI in vitro screen, colon cancer HT29; format: cell-based; settings: Homo sapiens, HT-29
Description: as §2

[6] = Cytotoxicity against non-malignant HGF cells, MTT method, 48 h; format: cell-based; settings: human, gingival fibroblasts (HGF)
Protocol: as §3

[7] = Cytotoxicity against non-malignant HPLF cells, MTT method, 48 h; format: cell-based; settings: human, periodontal ligament fibroblasts (HPLF)
Protocol: as §3

| SMILES | IC50 (SR cells) [µM] | IC50 (SW-620 cells) [µM] | IC50 (leukemia cells) [µM] | IC50 (Colo205 cells) [µM] | IC50 (HCT-116 cells) [µM] | CC50 at 48 h [1] [µM] | IC50 (KM12 cells) [µM] | IC50 (Molt-4 cells) [µM] | IC50 [2] [µM] | CC50 at 48 h [3] [µM] | IC50 (HCT-15 cells) [µM] | IC50 (HL-60 (TB) cells) [µM] | IC50 (All Cell Lines) [µM] | IC50 (K-562 cells) [µM] | CC50 (HSC-2 cells) [µM] | SI HSC-2 (HSC-2 cells) | IC50 (RPMI-8226 cells) [µM] | IC50 (HCC-2998 cells) [µM] | CC50 [5] [µM] | Average SI [5] | other results |
| --- | --- | --- | --- | --- | --- | --- | --- | --- | --- | --- | --- | --- | --- | --- | --- | --- | --- | --- | --- | --- | --- |
| O=C1/C(=C/c2ccccc2)CN(C(=O)CCN2CCC(=NO)CC2)C/C1=C\c1ccccc1 (as salt: hydrochloride) [Compound 3a, (3~{E},5~{E})-3,5-bis-benzylidine-1-[3-(4-hydroximino-1-piperidyl)propanoyl]piperidin-4-one hydrochloride] |  |  |  |  |  |  |  |  |  |  |  |  |  |  |  |  |  |  |  |  | melting point: 172.3 °C |
| O=C1/C(=C/c2ccccc2)CN(C(=O)CCN2CCC(=NO)CC2)C/C1=C\c1ccccc1 [Compound 3a, (3~{E},5~{E})-3,5-bis-benzylidine-1-[3-(4-hydroximino-1-piperidyl)propanoyl]piperidin-4-one hydrochloride] | 0.33 | 0.32 | 0.85 | 1.7 | 0.68 | 11 | 0.66 | 0.69 | 5.39 ± 0.26 | 11.5 ± 2.57 | 1.38 | 2.6 | 1.51 | 0.4 | 0.89 ± 0.06 | 12.4 | 0.32 | 1.74 | 0.66 | 18.1 | stability: 1H NMR spectra in dissolution and after 48 h incubation [4]: identical; IC50 (colon cancer cells): 1.1 µM; CC50 (Ca9-22 cells): 0.65 ± 0.07 µM; SI Ca9-22 (Ca9-22 cells): 16.9; CC50 (HSC-4 cells): 0.44 ± 0.16 µM; SI HSC-4 (HSC-4 cells): 25.0; IC50 (HT29 cells): 1.2 µM; CC50 at 48 h [6]: 7.11 ± 0.47 µM; CC50 at 48 h [7]: 14.3 ± 3.79 µM |
| Cc1ccc(/C=C2\CN(C(=O)CCN3CCC(=NO)CC3)C/C(=C\c3ccc(C)cc3)C2=O)cc1 [Compound 3f, (3~{E},5~{E})-3,5-bis[(4-methylphenyl)methylene]-1-[3-(4-hydroximino-1-piperidyl)propanoyl]piperidin-4-one hydrochloride] | 0.31 | 0.29 | 0.55 | 1.15 | 0.36 | 7.18 | 0.28 | 0.37 | 8.42 ± 1.1 | 7.85 ± 7.1 | 0.55 | 1.7 | 1.23 | 0.32 | 0.75 ± 0.04 | 9.57 | 0.3 | 1.58 | 0.55 | 13.9 | IC50 (colon cancer cells): 0.65 µM; CC50 (Ca9-22 cells): 0.47 ± 0.04 µM; SI Ca9-22 (Ca9-22 cells): 15.3; CC50 (HSC-4 cells): 0.43 ± 0.12 µM; SI HSC-4 (HSC-4 cells): 16.7; IC50 (HT29 cells): 0.35 µM; CC50 at 48 h [6]: 5.7 ± 0.65 µM; CC50 at 48 h [7]: 8 ± 0.2 µM |
| COc1ccc(/C=C2\CN(C(=O)CCN3CCC(=NO)CC3)C/C(=C\c3ccc(OC)cc3)C2=O)cc1 [Compound 3g, (3~{E},5~{E})-3,5-bis[(4-methoxyphenyl)methylene]-1-[3-(4-hydroximino-1-piperidyl)propanoyl]piperidin-4-one hydrochloride] | 0.62 | 1.38 | 1.88 | 2.04 | 1.74 | 10.8 | 1.74 | 2.95 | 4.35 ± 0.2 | 13.6 ± 0.6 | 2.14 | 2.82 | 1.28 | 1.2 | 1.56 ± 0.55 | 6.92 | 0.65 | 1.86 | 0.93 | 13.9 | IC50 (colon cancer cells): 1.84 µM; CC50 (Ca9-22 cells): 0.59 ± 0.06 µM; SI Ca9-22 (Ca9-22 cells): 18.3; CC50 (HSC-4 cells): 0.65 ± 0.02 µM; SI HSC-4 (HSC-4 cells): 16.6; IC50 (HT29 cells): 2.04 µM; CC50 at 48 h [6]: 6.63 ± 0.06 µM; CC50 at 48 h [7]: 12.1 ± 1.79 µM |
| COc1cc(/C=C2\CN(C(=O)CCN3CCC(=NO)CC3)C/C(=C\c3cc(OC)c(OC)c(OC)c3)C2=O)cc(OC)c1OC [Compound 3h, (3~{E},5~{E})-1-[3-(4-hydroximino-1-piperidyl)propanoyl]-3,5-bis[(3,4,5-trimethoxyphenyl)methylene]piperidin-4-one] | 0.3 | 0.3 | 0.3 | 0.26 | 0.21 | 3.07 | 0.2 | 0.29 | 2.31 ± 0.3 | 1.8 ± 0.6 | 1.23 | 0.27 | 1.22 | 0.32 | 0.23 ± 0.02 | 13.4 | 0.32 | 0.21 | 0.2 | 22.5 | IC50 (colon cancer cells): 0.39 µM; CC50 (Ca9-22 cells): 0.07 ± 0.03 µM; SI Ca9-22 (Ca9-22 cells): 43.9; CC50 (HSC-4 cells): 0.3 ± 0.15 µM; SI HSC-4 (HSC-4 cells): 10.2; IC50 (HT29 cells): 0.33 µM; CC50 at 48 h [6]: 2.18 ± 0.23 µM; CC50 at 48 h [7]: 5.22 ± 0.69 µM |
